Experiments:
CD4+ T cells [1] = experiment: Th22 polarization of SMARTA CD4+ T cells, cytokine expression; assay type: cell-based, mouse; details: CoA vs vehicle, non-polarizing or Th22 conditions
CD8+ T cells [2] = experiment: Tc subset polarization of CD8+ T cells, intracellular cytokine staining by flow cytometry; assay type: cell-based, mouse; details: for Tc22 polarization: CD8+ T cells activated three days in Tc22 conditions, compound vs vehicle (oligomycin 100 nm, etomoxir 40 μm, pantothenate 8 mM, CoA 2.5-3.5 mM)
CD8+ T cells [3] = experiment: ATP quantification (commercial kit); assay type: cell-based, mouse; details: CD8+ T cells activated with CoA vs vehicle
Method: (§1) Seahorse was performed as previously described (11). ATP quantification was performed on day 3 polarized T cells using a commercial kit (Sigma) according to the recommended protocol. For SITA, CD8+ T cells activated for three days in the presence of vehicle or CoA were harvested, washed and incubated for 2.5 hours with U-13C6-glucose (Cambridge Isotopes). Cells were then washed and pellet was frozen in methanol. The cells were thawed on ice and lysed by sonication at 4° C. using a Diagenode Bioruptor (30s. on, 30s off, 5 mins). The resulting mixtures were spun down (15 mins 13000 rpm 4° C.) to remove the cellular debris, the resulting supernatants were transferred to clean microfuge tubes and the solvent was removed using a speed-vac at room temperature. The resulting pellets were stored at −70° C. until derivitization. The pellets were solubilized in 30 μL of pyridine containing methoxyamine(10 mg/mL; Sigma) and each sample was spiked with 1 μL of myristic acid-D27 (750 ng/mL in pyridine; Cambridge Isotopes). The samples were vortexed, sonicated, transferred to autoinjection vials and incubated at room temperature for 30 mins. Subsequent to this, 70 uL of N-tert-Butyldimethylsilyl-N-methyltrifluoroacetamide (MTBSTFA; Sigma) was added and the samples were incubated at 70° C. for 30 mins. GC/MS analysis was performed using an Agilent 5975C GC/MS equipped with a DB-5MS+DG capillary column. […]

HIF-1α = experiment: Western blotting for HIF-1a; assay type: cell-based, mouse; details: CD8+ T cells activated with vehicle or CoA
Method: (§2) Antibodies used for flow cytometry were purchased from eBioscience, Biolegend and BD Pharmingen. Antibody clones used were: CD4 (RM-45), CD8 (53-6.7), IL-22 (IL22JOP and Poly5164), IL-17 (eBio17B7), IFN-γ (XMG1.2) and TNF-α (MP6-XT22). Antibodies used for western blotting were HIF-1a (Caymen Chem-10006421) and β-actin (Sigma—A2066). For intracellular cytokine staining, cells were re-stimulated for 5-6 hours with Cell-Stimulation Cocktail (eBioscience) in the presence of Brefeldin A (eBioscience), followed by staining using Cytofix/Cytoperm (BD Pharmingen). Flow cytometry data was acquired on a FACSCanto II (BD) and analyzed using FlowJo software (Tree Star). Cytokines were quantified in the supernatant using LEGENDPLEX cytometric bead array (Biolegend) or by ELISA (eBioscience)

CD8+ T cells [4] = experiment: Seahorse OCR / ECAR; assay type: cell-based, mouse
Method: Seahorse was performed as previously described (11). ATP quantification was performed on day 3 polarized T cells using a commercial kit (Sigma) according to the recommended protocol. For SITA, CD8+ T cells activated for three days in the presence of vehicle or CoA were harvested, washed and incubated for 2.5 hours with U-13C6-glucose (Cambridge Isotopes). Cells were then washed and pellet was frozen in methanol. The cells were thawed on ice and lysed by sonication at 4° C. using a Diagenode Bioruptor (30s. on, 30s off, 5 mins). The resulting mixtures were spun down (15 mins 13000 rpm 4° C.) to remove the cellular debris, the resulting supernatants were transferred to clean microfuge tubes and the solvent was removed using a speed-vac at room temperature. The resulting pellets were stored at −70° C. until derivitization. The pellets were solubilized in 30 μL of pyridine containing methoxyamine(10 mg/mL; Sigma) and each sample was spiked with 1 μL of myristic acid-D27 (750 ng/mL in pyridine; Cambridge Isotopes). The samples were vortexed, sonicated, transferred to autoinjection vials and incubated at room temperature for 30 mins. Subsequent to this, 70 uL of N-tert-Butyldimethylsilyl-N-methyltrifluoroacetamide (MTBSTFA; Sigma) was added and the samples were incubated at 70° C. for 30 mins. GC/MS analysis was performed using an Agilent 5975C GC/MS equipped with a DB-5MS+DG capillary column. 1 uL of sample was injected onto the GC column in splitless mode with an inlet temperature of 280° C. and the data was collected by electron impact set at 70 eV. Helium was used as the carrier gas with a flow rate of 1.55 mL/min. The quadrupole was set at 150° C. and the GC/MS interface at 285° C. The oven program for all metabolite analyses started at 60° C. held for 1 min, then increasing at a rate of 10° C./min until 320° C. Bake-out was at 320° C. for 10 mins and the sample data were acquired in scan mode (1-600 m/z).
To further characterize these observed differences in each Tc subset, we analyzed their respective utilization of glycolysis versus OXPHOS using the Seahorse Bioanalyzer. This method allows the concurrent measurement of the oxygen consumption rate (OCR—indicative of OXPHOS) and the extracellular acidification rate (ECAR—indicative of glycolysis) in real-time. […] Consistent with the increased ATP yield of oxidative metabolism compared to glycolysis, Tc22s had the highest amounts of intracellular ATP (FIG. 1F). We also observed metabolites involved in the TCA cycle and OXPHOS, particularly succinate, to be increased in Tc22s (FIG. 6).

CD4+ T cells [5] = experiment: OCR, OCR:ECAR ratio and ATP production in CD4+ T cells; assay type: cell-based, mouse; details: CD4+ T cells activated with vehicle or CoA
Method: as §1

CD8+ T cells [6] = experiment: RNA sequencing of CD8+ T cells activated with CoA or vehicle; assay type: cell-based, mouse; details: RNA seq
Method: RNA was extracted from CD8+ T cells activated for three days in the presence of CoA or Vehicle using Qiagen RNEasy kit. Libraries were prepared using TruSeq Stranded Total RNA kit. Two hundred nanograms from RNA samples were ribosomal RNA depleted using Ribo-zero Gold rRNA beads, following purification the RNA was fragmented. The cleaved RNA fragments were copied into first strand cDNA using reverse transcriptase and random primers. This is followed by second strand cDNA synthesis using RNase H and DNA Polymerase I. A single “A” based were added and adapter ligated followed by purification and enrichment with PCR to create cDNA libraries. Final cDNA libraries were size validated using Agilent Bioanalyzer and concentration validated by qPCR. All libraries were normalized to 10 nM and pooled together. 10 pM of pooled libraries were loaded onto Illumina cBot for cluster generation. Clustered flow cell was then sequenced Pair-end 100 cycles V3 using Illumina HighSeq 2000 to achieve ˜30 million reads per sample.
The Tophat (2.0.8b) software suite with Bowtie (2.0.5) was used to align reads to the Mus musculus mm10 mouse genome (igenome). […] The cufflinks (2.2.1) software suite was used to quantify alignments. Cuffquant was used to quantify individual sample alignments and Cuffnorm was used to normalize quantified data for each group of biological replicates. […]

[7] = system: dextran sulfate sodium (DSS) colitis; experiment: DSS colitis model; assay type: in vivo, mouse; details: 2.5% DSS in water 5 days; oral CoA 0.5 mg/mL in drinking water vs vehicle
Method: For DSS-colitis experiments, 8-12 week old female C57BL/6 mice were randomized into different cohorts and colitis was induced using 2.5% DSS (MP Bio) added to the drinking water of mice for 5 consecutive days. CoA (0.5 mg/mL) or vehicle control was added to the drinking water on day 0. On day 5, mice were switched to fresh water without any DSS added, supplemented with either CoA (0.5 mg/mL) or vehicle control.

CD8+ T cells [8] = experiment: Stable isotope tracer analysis (SITA) with 13C-glucose, GC/MS; assay type: cell-based, mouse; details: three days CoA or vehicle
Method: as §1, with “mins.” for “mins. GC/MS analysis was performed using an Agilent 5975C GC/MS equipped with a DB-5MS+DG capillary column.”
The data was analyzed using Agilent MSD-Chemstation interfaced to the NIST11 library. […]

CD8+ T cells [9] = experiment: Cytokines quantified in supernatant (cytometric bead array or ELISA); assay type: cell-based, mouse; details: three day culture, CD8+ T cells activated with vehicle or CoA
Method: as §2
Oligomycin, Etomoxir, Diethyl succinate and Calcium-D Pantothenate were purchased from Sigma, and Coenzyme A Trilithium Salt (CoA) and HIF-inhibitor (CAS 934593-90-5) were purchased from EMD Millipore. Oligomycin (100 nm) was added to CD8+ T cells 24 hours after the start of activation, while Etomoxir (40 μm), Pantothenate (8 mM), Diethyl Succinate (14 mM) and HIF-Inhibitor (40 μM) were added at the start of activation. CoA was added at the start of activation unless otherwise indicated at a concentration of 2.5-3.5 mM depending on the lot.

human CD8+ cells = experiment: Human T cell Tc22 polarization, intracellular cytokines by flow cytometry; assay type: cell-based; details: human naive T cells, Tc22 conditions, pantothenate 8 mM on day 0, five days
Method: Peripheral blood mononuclear cells were obtained from healthy donors following institutional review board approval. Written informed consent was obtained from all donors who provided the samples. PBMCs were magnetically sorted for naïve T cells (Miltenyi Biotec) and seeded into a 96-well plate previously coated with 5 μg/mL anti-CD3 (eBioscience, clone OKT3). To induce Tc22 polarization, the following antibodies and cytokines were added to culture: 1 μg/mL anti-CD28 (eBioscience, clone CD28.2), 5 μg/mL anti-IFNγ (BioLegend, clone B27), 5 μg/mL anti-IL-4 (BioLegend, clone 8D4-8), 5 μg/mL anti-TGFβ (eBioscience, clone 1D11.16.8), 20 ng/mL IL-6, 10 ng/mL IL-21, 10 ng/mL IL-23, 40 ng/mL TNF-α (All from BioLegend) and 2 ng/mL FICZ. Pantothenate (8 mM) or vehicle control was also added on day 0. Five days later, cells were stimulated with PMA/ionomycin+Brefeldin for 5-6 hours. Cells were then stained and analyzed for intracellular cytokines by flow cytometry.

[10] = re-stimulated 48 hours with anti-CD3 with vehicle or CoA
[11] = CD8+ T cells activated with CoA vs vehicle

CC(C)(COP(=O)(O)OP(=O)(O)OC[C@H]1O[C@@H](n2cnc3c(N)ncnc32)[C@H](O)[C@@H]1OP(=O)(O)O)[C@@H](O)C(=O)NCCC(=O)NCCS.[Li].[Li].[Li] [CoA, Coenzyme A Trilithium Salt]
Th22 polarization (CD4+ T cells [1]): induced and enhanced Th22 polarization
Tc22 polarization (CD8+ T cells [2]): greatly enhanced polarization
Cytokine expression in non-polarizing conditions (CD8+ T cells [2]; CD8+ T cells activated with CoA alone, absence of polarizing cytokines): skewed primarily towards an IL-22^+ IL-17^− IFNγ^− population
Tc22 induction in presence of IL-6 neutralizing antibody (CD8+ T cells [2]; CoA with anti IL-6 (10 ug/mL), three days): retained the ability to induce Tc22s
Tc22 polarization in APC-free system (CD8+ T cells [2]; platebound anti-CD3 and soluble anti CD28, three days, CoA added 24 hours after start, non-polarizing or Tc22 conditions): induced and enhanced Tc22 polarization
IL-22 production in previously activated CD8+ T cells (CD8+ T cells [2]; [10]): able to induce IL-22 production
Intracellular levels of ATP (CD8+ T cells [3]): increased intracellular levels of ATP
Levels of HIF-1α (HIF-1α): substantially increased levels of HIF-1α
Basal ECAR (CD8+ T cells [4]; [11]): lower basal ECAR
Basal OCR (CD8+ T cells [4]; [11]): higher basal OCR
OCR:ECAR ratio (CD8+ T cells [4]; [11]): high OCR:ECAR ratio
Oxidative phenotype (OCR, ECAR, OCR:ECAR, ATP) in previously activated CD8+ T cells (CD8+ T cells [4]; [10]): promote an oxidative phenotype
ATP production in CD4+ T cells (CD4+ T cells [5]): enhanced ATP production
Metabolic shift (OCR, OCR:ECAR ratio) in CD4+ T cells (CD4+ T cells [5]): metabolic shift towards OXPHOS
Expression of genes up-regulated by Tc22 polarizing cytokines (Tc22 signature) (CD8+ T cells [6]; CoA alone vs vehicle, three days): strongly up-regulated
Gene expression altered by treatment (GO term analysis) (CD8+ T cells [6]; CoA vs vehicle): primarily altered the expression of immune system genes and not metabolic genes
Disease severity (% weight loss) [7]: decrease in disease severity
Total intracellular pools of TCA intermediates (CD8+ T cells [8]): increased total intracellular pools of many of the TCA intermediates
Incorporation of 13C label into TCA metabolites (CD8+ T cells [8]; then 2.5 hours 13C glucose): enhanced incorporation of the ^13C label into TCA metabolites
Cytokine profile in supernatants (CD8+ T cells [9]): primarily up-regulate IL-22

CCOC(=O)[C@@]1(CCCCCCOc2ccc(Cl)cc2)CO1 [etomoxir, Etomoxir]
Tc22 polarization (CD8+ T cells [2]): had no effect on Tc22 polarization

CC[C@H]1/C=C/C=C/C[C@@H](C)[C@H](O)[C@@](C)(O)C(=O)[C@@H](C)[C@H](O)[C@@H](C)C(=O)[C@@H](C)[C@H](O)[C@@H](C)/C=C/C(=O)O[C@@H]2[C@H](C)[C@H](CC1)O[C@]1(CC[C@H](C)[C@H](C[C@@H](C)O)O1)[C@H]2C [oligomycin, Oligomycin]
Tc22 polarization (CD8+ T cells [2]): decrease in Tc22 polarization
Tc1 polarization (CD8+ T cells [2]; Tc1 conditions, oligomycin 100 nm added 24 hours after start of activation): did enhance Tc1 polarization
Tc17 polarization (CD8+ T cells [2]; Tc17 conditions, oligomycin 100 nm added 24 hours after start of activation): did not affect Tc17 polarization

CC(C)(CO)[C@@H](O)C(=O)NCCC(=O)O [pantothenate, Calcium-D Pantothenate]
Tc22 polarization (CD8+ T cells [2]): enhanced polarization
Tc22 polarization, human CD8+ cells (human CD8+ cells): enhanced polarization

CCOC(=O)CCC(=O)OCC [succinate, Diethyl succinate]
IL-22 production (CD8+ T cells [2]; CD8+ T cells activated three days with exogenous succinate (diethyl succinate 14 mM)): enhanced IL-22 production
